Experimental data reported in PubChem BioAssay AID1963966 (Molecular Pharmacology Branch, DTP, NCI, 2024).

Test system: 935938-334-R-J1-PDC spheroids with HUVEC/MSC, viability
Test: Anticancer human tumor 935938-334-R-J1-PDC patient-derived small intestine adenocarcinoma cell line growth inhibition [PI3K]
Conditions: for IC50: curve of first compound; for viability, T/C: stronger effect = lower value
Method in brief: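 Stroma-containing spheroids: tumor line, pooled-donor HUVEC, hMSC. Treatments: targeted agents with PI3K inhibitors. Dosing: clinically relevant, half-log spacing, 10 microM ceiling without known Cmax. Read-out: cell viability.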

[1] = second compound 0.00316 µM, first compound 0.0316 µM
[2] = second compound 0.00316 µM, first compound 0.1 µM
[3] = second compound 0.00316 µM, first compound 0.316 µM
[4] = second compound 0.00316 µM, first compound 1 µM
[5] = second compound 0.00316 µM, first compound 3.16 µM
[6] = second compound 0.00316 µM, first compound 10 µM
[7] = second compound 0.01 µM, first compound 0.0316 µM
[8] = second compound 0.01 µM, first compound 0.1 µM
[9] = second compound 0.01 µM, first compound 0.316 µM
[10] = second compound 0.01 µM, first compound 1 µM
[11] = second compound 0.01 µM, first compound 3.16 µM
[12] = second compound 0.01 µM, first compound 10 µM
[13] = second compound 0.0316 µM, first compound 0.0316 µM
[14] = second compound 0.0316 µM, first compound 0.1 µM
[15] = second compound 0.0316 µM, first compound 0.316 µM
[16] = second compound 0.0316 µM, first compound 1 µM
[17] = second compound 0.0316 µM, first compound 3.16 µM
[18] = second compound 0.0316 µM, first compound 10 µM
[19] = second compound 0.1 µM, first compound 0.0316 µM
[20] = second compound 0.1 µM, first compound 0.1 µM
[21] = second compound 0.1 µM, first compound 0.316 µM
[22] = second compound 0.1 µM, first compound 1 µM
[23] = second compound 0.1 µM, first compound 3.16 µM
[24] = second compound 0.1 µM, first compound 10 µM
[25] = second compound 0.316 µM, first compound 0.0316 µM
[26] = second compound 0.316 µM, first compound 0.1 µM
[27] = second compound 0.316 µM, first compound 0.316 µM
[28] = second compound 0.316 µM, first compound 1 µM
[29] = second compound 0.316 µM, first compound 3.16 µM
[30] = second compound 0.316 µM, first compound 10 µM
[31] = second compound 1 µM, first compound 0.0316 µM
[32] = second compound 1 µM, first compound 0.1 µM
[33] = second compound 1 µM, first compound 0.316 µM
[34] = second compound 1 µM, first compound 1 µM
[35] = second compound 1 µM, first compound 3.16 µM
[36] = second compound 1 µM, first compound 10 µM
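Note: compound exposure lasted seven days before viability was read.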
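Throughout, for viability, T/C: percent of vehicle DMSO treated spheroid viability so 100% = untreated.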

## C#Cc1c(F)ccc2cc(O)cc(-c3ncc4c(N5CC6CCC(C5)N6)nc(OCC56CCCN5CC(F)C6)nc4c3F)c12 (centres undefined) + COc1c(OCCCN2CCOCC2)ccc2c3n(c(=NC(=O)c4cnc(N)nc4)nc12)CCN3
Second compound 0.00316 µM
  IC50: 5.09 µM
Second compound 0.01 µM
  IC50: 2.25 µM
Second compound 0.0316 µM
  IC50: 0.586 µM
Second compound 0.1 µM
  IC50: 0.0818 µM
Second compound 0.316 µM
  IC50: < 0.0316 µM
Second compound 1 µM
  IC50: < 0.0316 µM
[1]
  viability, T/C: 97.9%
[2]
  viability, T/C: 91.9%
[3]
  viability, T/C: 75.3%
[4]
  viability, T/C: 70.9%
[5]
  viability, T/C: 57%
[6]
  viability, T/C: 40.7%
[7]
  viability, T/C: 101%
[8]
  viability, T/C: 86.4%
[9]
  viability, T/C: 103%
[10]
  viability, T/C: 65.2%
[11]
  viability, T/C: 46.5%
[12]
  viability, T/C: 29.2%
[13]
  viability, T/C: 66.4%
[14]
  viability, T/C: 72.4%
[15]
  viability, T/C: 53.6%
[16]
  viability, T/C: 44.4%
[17]
  viability, T/C: 31%
[18]
  viability, T/C: 22.5%
[19]
  viability, T/C: 57.5%
[20]
  viability, T/C: 46.2%
[21]
  viability, T/C: 39.9%
[22]
  viability, T/C: 23%
[23]
  viability, T/C: 24.2%
[24]
  viability, T/C: 21.8%
[25]
  viability, T/C: 34.4%
[26]
  viability, T/C: 29.5%
[27]
  viability, T/C: 27.7%
[28]
  viability, T/C: 25.1%
[29]
  viability, T/C: 25.6%
[30]
  viability, T/C: 19.9%
[31]
  viability, T/C: 27.3%
[32]
  viability, T/C: 30.4%
[33]
  viability, T/C: 34.1%
[34]
  viability, T/C: 24.6%
[35]
  viability, T/C: 22.2%
[36]
  viability, T/C: 23.9%

## C=CC(=O)N1CCN(c2nc(=O)n(-c3c(C)ccnc3C(C)C)c3nc(-c4c(O)cccc4F)c(F)cc23)C(C)C1 (centres undefined) + COc1c(OCCCN2CCOCC2)ccc2c3n(c(=NC(=O)c4cnc(N)nc4)nc12)CCN3
Second compound 0.00316 µM
  IC50: > 10 µM
Second compound 0.01 µM
  IC50: > 10 µM
Second compound 0.0316 µM
  IC50: > 10 µM
Second compound 0.1 µM
  IC50: 2.4 µM
Second compound 0.316 µM
  IC50: < 0.0316 µM
Second compound 1 µM
  IC50: < 0.0316 µM
[1]
  viability, T/C: 94%
[2]
  viability, T/C: 108%
[3]
  viability, T/C: 93.9%
[4]
  viability, T/C: 91%
[5]
  viability, T/C: 104%
[6]
  viability, T/C: 109%
[7]
  viability, T/C: 100%
[8]
  viability, T/C: 96%
[9]
  viability, T/C: 92.5%
[10]
  viability, T/C: 94.9%
[11]
  viability, T/C: 102%
[12]
  viability, T/C: 93.2%
[13]
  viability, T/C: 93.1%
[14]
  viability, T/C: 83.5%
[15]
  viability, T/C: 86.7%
[16]
  viability, T/C: 71.7%
[17]
  viability, T/C: 82.7%
[18]
  viability, T/C: 65.9%
[19]
  viability, T/C: 56.9%
[20]
  viability, T/C: 47.5%
[21]
  viability, T/C: 61.2%
[22]
  viability, T/C: 49.3%
[23]
  viability, T/C: 67%
[24]
  viability, T/C: 33%
[25]
  viability, T/C: 32.7%
[26]
  viability, T/C: 31.7%
[27]
  viability, T/C: 34.5%
[28]
  viability, T/C: 34.7%
[29]
  viability, T/C: 28.1%
[30]
  viability, T/C: 32.9%
[31]
  viability, T/C: 29.3%
[32]
  viability, T/C: 38.8%
[33]
  viability, T/C: 38.5%
[34]
  viability, T/C: 33%
[35]
  viability, T/C: 32.5%
[36]
  viability, T/C: 44.1%
